According to US20080234262A1 (Wyeth, priority 2007, published 2008):
Read-outs that look alike come from different tables or passages of the source.

What was measured:
breast line MDA468 = assay: In vitro cell culture growth assay (MTS), MDA468; format: cell-based, human; conditions: MDA468 cells, three days after drug treatment
Outline: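 Steps: plate cells; add inhibitors the next day; incubate 3 days; add MTS dye, which viable cells convert metabolically; measure absorbance at 490 nm; calculate percent of control growth relative to vehicle-treated cells in the same plate.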

prostate line LNCap = assay: In vitro cell culture growth assay (MTS), LNCap; format: cell-based, human; conditions: LNCap cells, three days after drug treatment;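 note: viable cell density read by absorbance at 490 nm, growth expressed as percent of vehicle-treated cells on the same plate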
PI3K = PI3K (Homo sapiens, UniProt P42336); assay: Fluorescence polarization assay for PI3K; format: biochemical;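 note: PI3K kinase reaction on PIP2 with ATP, 30-60 min, product sensed by GST-GRP with red probe in fluorescence polarization (mP), controls without enzyme and at zero time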
PI3K, sequence (P42336 whole entry): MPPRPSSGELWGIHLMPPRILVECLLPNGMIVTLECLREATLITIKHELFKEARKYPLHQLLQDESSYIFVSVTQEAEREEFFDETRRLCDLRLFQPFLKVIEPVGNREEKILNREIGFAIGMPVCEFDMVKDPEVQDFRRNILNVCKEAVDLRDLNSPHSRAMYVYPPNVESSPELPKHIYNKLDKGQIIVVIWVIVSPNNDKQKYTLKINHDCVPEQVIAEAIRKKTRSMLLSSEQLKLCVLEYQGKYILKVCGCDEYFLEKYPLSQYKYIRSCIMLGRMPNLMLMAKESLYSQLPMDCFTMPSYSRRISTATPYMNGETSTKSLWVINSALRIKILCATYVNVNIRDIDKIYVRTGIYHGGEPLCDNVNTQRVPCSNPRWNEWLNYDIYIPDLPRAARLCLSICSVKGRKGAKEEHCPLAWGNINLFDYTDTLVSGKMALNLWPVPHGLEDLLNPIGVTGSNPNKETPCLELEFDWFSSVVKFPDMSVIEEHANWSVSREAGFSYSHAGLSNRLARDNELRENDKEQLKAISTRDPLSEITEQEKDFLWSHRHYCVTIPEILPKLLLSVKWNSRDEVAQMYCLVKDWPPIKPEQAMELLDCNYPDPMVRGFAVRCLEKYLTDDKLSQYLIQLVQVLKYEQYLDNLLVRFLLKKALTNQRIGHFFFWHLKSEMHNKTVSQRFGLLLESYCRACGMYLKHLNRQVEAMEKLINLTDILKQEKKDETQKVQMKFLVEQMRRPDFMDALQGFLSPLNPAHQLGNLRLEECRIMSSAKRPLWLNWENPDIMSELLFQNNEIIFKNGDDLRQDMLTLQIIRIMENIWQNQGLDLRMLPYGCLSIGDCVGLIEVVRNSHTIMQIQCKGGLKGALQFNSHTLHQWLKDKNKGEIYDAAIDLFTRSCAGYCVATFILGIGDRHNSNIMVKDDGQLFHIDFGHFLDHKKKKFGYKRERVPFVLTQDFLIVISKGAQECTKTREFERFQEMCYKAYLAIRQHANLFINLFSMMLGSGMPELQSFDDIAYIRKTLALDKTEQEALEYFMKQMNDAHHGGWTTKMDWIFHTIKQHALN
PI3K, sequence (P27986 whole entry partner): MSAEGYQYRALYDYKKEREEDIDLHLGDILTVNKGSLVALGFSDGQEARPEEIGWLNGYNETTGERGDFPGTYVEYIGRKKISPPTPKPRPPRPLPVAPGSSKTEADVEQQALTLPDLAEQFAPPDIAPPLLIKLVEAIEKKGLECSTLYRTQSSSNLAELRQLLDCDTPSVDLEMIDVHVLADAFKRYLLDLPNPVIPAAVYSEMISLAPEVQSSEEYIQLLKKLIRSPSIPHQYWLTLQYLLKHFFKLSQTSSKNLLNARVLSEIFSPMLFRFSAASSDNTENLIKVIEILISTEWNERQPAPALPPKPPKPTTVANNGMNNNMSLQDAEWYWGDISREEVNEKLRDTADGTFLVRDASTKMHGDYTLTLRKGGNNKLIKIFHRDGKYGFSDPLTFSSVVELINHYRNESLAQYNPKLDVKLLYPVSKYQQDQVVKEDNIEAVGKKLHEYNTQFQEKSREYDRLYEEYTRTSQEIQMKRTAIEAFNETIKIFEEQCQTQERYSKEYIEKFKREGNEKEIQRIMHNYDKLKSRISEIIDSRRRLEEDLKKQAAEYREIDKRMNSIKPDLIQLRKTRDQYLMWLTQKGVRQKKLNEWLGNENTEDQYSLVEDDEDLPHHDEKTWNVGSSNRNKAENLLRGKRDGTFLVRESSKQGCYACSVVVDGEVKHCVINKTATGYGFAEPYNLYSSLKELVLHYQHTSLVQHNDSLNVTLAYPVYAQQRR

| Compound | IC50 (prostate line LNCap; Homo sapiens, LNCaP, 72 h) [nM] | IC50 (PI3K; PI3Kα; read-out: PI3Kα IC50) [nM] | IC50 (prostate line LNCap) [nM] | IC50 (breast line MDA468; Homo sapiens, 72 h) [nM] | IC50 (breast line MDA468) [nM] | IC50 (PI3K; read-out: PI3Kα IC50; PI3Kα) [nM] |
| --- | --- | --- | --- | --- | --- | --- |
| CNC(=O)Nc1ccc(-c2nc(N3CCOCC3)c3cnn(C4CCC(=O)CC4)c3n2)cc1 [Compound 567, 1-methyl-3-{4-[4-morpholin-4-yl-1-(4-oxocyclohexyl)-1H-pyrazolo[3,4-d]pyrimidin-6-yl]phenyl}urea] | 27 | 56 |  | 180 |  |  |
| O=C(NCCF)Nc1ccc(-c2nc(N3CCOCC3)c3cnn(CC(F)(F)F)c3n2)cc1 [Compound 790, 1-(2-fluoroethyl)-3-{4-[4-morpholin-4-yl-1-(2,2,2-trifluoroethyl)-1H-pyrazolo[3,4-d]pyrimidin-6-yl]phenyl}urea] | 60 | 314 |  | 150 |  |  |
| CCCOC(=O)N1CCC(n2ncc3c(N4CCOCC4)nc(-c4ccc(NC(=O)NC)cc4)nc32)CC1 [Compound 751, propyl 4-(6-{4-[(methylcarbamoyl)amino]phenyl}-4-morpholin-4-yl-1H-pyrazolo[3,4-d]pyrimidin-1-yl)piperidine-1-carboxylate] | 34 | 106 |  | 110 |  |  |
| CNC(=O)Nc1ccc(-c2nc(N3CCOCC3)c3cnn(C4CCN(Cc5ccc(F)cc5)CC4)c3n2)cc1 [Compound 671, 1-(4-{1-[1-(4-fluorobenzyl)piperidin-4-yl]-4-morpholin-4-yl-1H-pyrazolo[3,4-d]pyrimidin-6-yl}phenyl)-3-methylurea] |  | 34 | < 27 |  | 210 |  |
| CCOC(=O)N1CCC(n2ncc3c(N4CCOC[C@@H]4C)nc(-c4ccc(NC(=O)Nc5ccccc5)cc4)nc32)CC1 [Compound 896, ethyl 4-(4-[(3S)-3-methylmorpholin-4-yl]-6-{4-[(phenylcarbamoyl)amino]phenyl}-1H-pyrazolo[3,4-d]pyrimidin-1-yl)piperidine-1-carboxylate] | 150 | 19 |  | 800 |  |  |
| Cc1ccc(C(=O)N2CCC(n3ncc4c(N5CCOCC5)nc(-c5ccc6[nH]ccc6c5)nc43)CC2)cn1 [Example 202, 6-(1H-indol-5-yl)-1-{1-[(6-methylpyridin-3-yl)carbonyl]piperidin-4-yl}-4-morpholin-4-yl-1H-pyrazolo[3,4-d]pyrimidine] | 400 | 2100 |  | 2000 |  |  |
| CNC(=O)Nc1ccc(-c2nc(N3CCOCC3)c3cnn(C4CCN(Cc5cccnc5)CC4)c3n2)cc1F [Compound 597, 1-(2-fluoro-4-{4-morpholin-4-yl-1-[1-(pyridin-3-ylmethyl)piperidin-4-yl]-1H-pyrazolo[3,4-d]pyrimidin-6-yl}phenyl)-3-methylurea] | 27 | 246 |  | 180 |  |  |
| O=C(Nc1ccccc1)Nc1ccc(-c2nc(N3CCOCC3)c3cnn(C4CCN(CC(F)(F)F)CC4)c3n2)cc1 [Compound 789, 1-(4-{4-morpholin-4-yl-1-[1-(2,2,2-trifluoroethyl)piperidin-4-yl]-1H-pyrazolo[3,4-d]pyrimidin-6-yl}phenyl)-3-phenylurea] | 100 | 18 |  | 900 |  |  |
| Nc1ccnc(-c2nc(N3CCOCC3)c3cnn(-c4ccccc4)c3n2)c1 [Compound 681, 2-(4-morpholin-4-yl-1-phenyl-1H-pyrazolo[3,4-d]pyrimidin-6-yl)pyridin-4-amine] |  | 1460 | > 60000 |  | > 60000 |  |
| CNC(=O)Nc1ccc(-c2nc(N3CCOCC3)c3cnn(C4CCN(C(=O)c5ccccc5OC)CC4)c3n2)cc1 [Compound 611, 1-(4-{1-[1-(2-methoxybenzoyl)piperidin-4-yl]-4-morpholin-4-yl-1H-pyrazolo[3,4-d]pyrimidin-6-yl}phenyl)-3-methylurea] | < 27 | 82 |  | 330 |  |  |
| C[C@@H]1COCCN1c1nc(-c2cccc(O)c2)nc2c1cnn2-c1ccccc1 [Compound 942, 3-{4-[(3R)-3-methylmorpholin-4-yl]-1-phenyl-1H-pyrazolo[3,4-d]pyrimidin-6-yl}phenol] | 2800 | 1390 |  | 10200 |  |  |
| CNC(=O)Nc1ccc(-c2nc(N3CCOCC3)c3cnn(C4CCN(Cc5cnccc5OC)CC4)c3n2)cc1 [Compound 636, 1-[4-(1-{1-[(4-methoxypyridin-3-yl)methyl]piperidin-4-yl}-4-morpholin-4-yl-1H-pyrazolo[3,4-d]pyrimidin-6-yl)phenyl]-3-methylurea] |  | 82 | 70 |  | 220 |  |
| c1ccc(CCN2CCC(n3ncc4c(N5CCOCC5)nc(-c5ccc6[nH]ccc6c5)nc43)CC2)cc1 [Compound 239, 6-(1H-indol-5-yl)-4-morpholin-4-yl-1-[1-(2-phenylethyl)piperidin-4-yl]-1H-pyrazolo[3,4-d]pyrimidine] | 780 | 3090 |  | 3100 |  |  |
| CCNC(=O)Nc1ccc(-c2nc(N3CCOCC3)c3cnn(C4CCN(Cc5ccccc5)CC4)c3n2)cc1F [Compound 596, 1-{4-[1-(1-benzylpiperidin-4-yl)-4-morpholin-4-yl-1H-pyrazolo[3,4-d]pyrimidin-6-yl]-2-fluorophenyl}-3-ethylurea] | 230 | 485 |  | 2500 |  |  |
| O=C(Oc1ccccc1)N1CCC(n2ncc3c(N4CCOCC4)nc(-c4ccc5[nH]ccc5c4)nc32)CC1 [Compound 493, phenyl 4-[6-(1H-indol-5-yl)-4-morpholin-4-yl-1H-pyrazolo[3,4-d]pyrimidin-1-yl]piperidine-1-carboxylate] |  |  | 1300 |  | 4300 | 535 |

Further compounds by falling IC50 (PI3K; PI3Kα; read-out: PI3Kα IC50), results first:

| IC50 (prostate line LNCap; Homo sapiens, LNCaP, 72 h) [nM] | IC50 (PI3K; PI3Kα; read-out: PI3Kα IC50) [nM] | IC50 (prostate line LNCap) [nM] | Compound | IC50 (breast line MDA468; Homo sapiens, 72 h) [nM] | IC50 (breast line MDA468) [nM] | IC50 (PI3K; read-out: PI3Kα IC50; PI3Kα) [nM] |
| --- | --- | --- | --- | --- | --- | --- |
| 55000 | 11000 |  | O=C1COCCN1c1nc(-c2cccc(O)c2)nc2c1cnn2-c1ccccc1 [Compound 727, 4-[6-(3-hydroxyphenyl)-1-phenyl-1H-pyrazolo[3,4-d]pyrimidin-4-yl]morpholin-3-one] | > 60000 |  |  |
| 35000 | 7770 |  | CC(C)(C)C(=O)Nc1ccc(-c2nc(N3CCOCC3)c3cnn(C4CCN(Cc5ccccc5)CC4)c3n2)cc1 [Compound 187] | 40000 |  |  |
| 7000 | 2270 |  | CN(C)CC(=O)Nc1ccc(-c2nc(N3CCOCC3)c3cn[nH]c3n2)cc1 [Compound 281, N~2~,N~2~-dimethyl-N-[4-(4-morpholin-4-yl-1H-pyrazolo[3,4-d]pyrimidin-6-yl)phenyl]glycinamide] | 18000 |  |  |
| 800 | 2150 |  | CCCOC(=O)N1CCC(n2ncc3c(N4CCOCC4)nc(-c4ccc(NC(=O)NCC5CC5)cc4)nc32)CC1 [Compound 858, propyl 4-[6-(4-{[(cyclopropylmethyl)carbamoyl]amino}phenyl)-4-morpholin-4-yl-1H-pyrazolo[3,4-d]pyrimidin-1-yl]piperidine-1-carboxylate] | 3200 |  |  |
| 80 | 1380 |  | COC(=O)N1CCC(n2ncc3c(N4CCOC(C)C4)nc(-c4ccc(NC(=O)NC5CC5)cc4)nc32)CC1 (stereo not drawn) [Compound 843, methyl 4-[6-{4-[(cyclopropylcarbamoyl)amino]phenyl}-4-(2-methylmorpholin-4-yl)-1H-pyrazolo[3,4-d]pyrimidin-1-yl]piperidine-1-carboxylate] | 900 |  |  |
| 5200 | 171 |  | NNC(=O)Nc1ccc(-c2nc(N3CCOCC3)c3cnn(-c4ccccc4)c3n2)cc1 [Example 292, N-[4-(4-morpholin-4-yl-1-phenyl-1H-pyrazolo[3,4-d]pyrimidin-6-yl)phenyl]hydrazinecarboxamide] | 8000 |  |  |
| 900 | 155 |  | NNC(=O)Nc1ccc(-c2nc(N3CCOCC3)c3cnn(C4CCN(Cc5ccccc5)CC4)c3n2)cc1 [Example 309, N-{4-[1-(1-benzylpiperidin-4-yl)-4-morpholin-4-yl-1H-pyrazolo[3,4-d]pyrimidin-6-yl]phenyl}hydrazinecarboxamide] | 7500 |  |  |
| 103 | 155 |  | CNC(=O)Nc1ccc(-c2nc(N3CCOCC3)c3cnn(C4CCN(CC5OCCO5)CC4)c3n2)cc1 [Compound 797, 1-(4-{1-[1-(1,3-dioxolan-2-ylmethyl)piperidin-4-yl]-4-morpholin-4-yl-1H-pyrazolo[3,4-d]pyrimidin-6-yl}phenyl)-3-methylurea] | 300 |  |  |
| 35 | 109 |  | CNC(=O)Nc1ccc(-c2nc(N3CCOCC3)c3cnn(C4CCN(Cc5ccc(F)nc5)CC4)c3n2)cc1 [Example 387, 1-[4-(1-{1-[(6-fluoropyridin-3-yl)methyl]piperidin-4-yl}-4-morpholin-4-yl-1H-pyrazolo[3,4-d]pyrimidin-6-yl)phenyl]-3-methylurea] | 100 |  |  |
| 150 | 89 |  | CNC(=O)Nc1ccc(-c2nc(N3CCOCC3)c3cnn(C4CCN(C(=O)c5ccc(C#N)cc5)CC4)c3n2)cc1 [Example 368, 1-(4-{1-[1-(4-cyanobenzoyl)piperidin-4-yl]-4-morpholin-4-yl-1H-pyrazolo[3,4-d]pyrimidin-6-yl}phenyl)-3-methylurea] | 200 |  |  |
| 52 | 42 |  | CNC(=O)Nc1ccc(-c2nc(N3CCOCC3)c3cnn(C4CCN(Cc5cccc(C)c5)CC4)c3n2)cc1 [Example 430, 1-methyl-3-(4-{1-[1-(3-methylbenzyl)piperidin-4-yl]-4-morpholin-4-yl-1H-pyrazolo[3,4-d]pyrimidin-6-yl}phenyl)urea] | 200 |  |  |
| 27 | 35 |  | O=C(Nc1ccncc1)Nc1ccc(-c2nc(N3CCOCC3)c3cnn(C4CCN(Cc5cccnc5)CC4)c3n2)cc1F [Compound 352, 1-(2-fluoro-4-{4-morpholin-4-yl-1-[1-(pyridin-3-ylmethyl)piperidin-4-yl]-1H-pyrazolo[3,4-d]pyrimidin-6-yl}phenyl)-3-pyridin-4-ylurea] | 100 |  |  |
